Experimental data reported in patent US10709720B2, “Human milk oligosaccharides for modulating inflammation” (priority 2010, dated 2020).
In brackets after ≈: the same amount, converted by molar mass. Entries after “also recorded” stand apart in the source; their conditions may differ.

Tests used:
[1] = tested on: H1N1 influenza virus; experiment: microbe, parasite or virus in culture; assay type: cell-based
[2] = tested on: H1N1 influenza virus; experiment: organism not typed; assay type: cell-based; details: HMO at 10 mg/mL, MDCK cells, FIG. 1
[3] = tested on: human parainfluenza virus (HPIV3); experiment: microbe, parasite or virus in culture; assay type: cell-based; details: virus dose about 500-1,000 units/mL, HMOs added at 1 mg/mL or 10 mg/mL
[4] = tested on: interferon-inducible protein 10 (IP-10); experiment: IP-10 in supernatants of HMO-pretreated, RSV-infected peripheral blood mononuclear cells (Example 39); assay type: cell-based, human; details: for IP-10 in virus-infected variables: 24 hour pretreatment, both donors, 24 and 48 hours post-infection; for IP-10 level reached compared with uninfected controls / effectiveness at dampening virus-induced inflammation (decrease in IP-10) compared with 3′SL: RSV-infected PBMCs; for reducing inflammation caused by RSV: pretreatment for 24 hours
Description: (§1) Specifically, either 3′SL or 6′SL is added, at concentrations of 0.1 mg/mL, 0.2 mg/mL, or 0.5 mg/mL to fresh peripheral blood mononuclear cells and incubated at 37° C. in 5% CO2 to pretreat the cells for approximately 24 hours. LNnT is added, at concentrations of 0.1 mg/mL, 0.2 mg/mL, or 1 mg/mL to fresh peripheral blood mononuclear cells and incubated at 37° C. in 5% CO2 to pretreat the cells for approximately 24 hours. Lactose is included as a carbohydrate control. Matched endotoxin unit concentration controls are included to allow differentiation of ingredient effects from inherent low levels of endotoxin. Some variables are then incubated with RSV at a multiplicity of infection (MOI) of 0.1 for approximately 1 hour at 37° C. in 5% in CO2. Uninfected control variables are incubated with medium for approximately 1 hour at 37° C. in 5% CO2. After approximately one hour, fresh medium alone, or fresh medium containing the appropriate concentration of 3′SL, 6′SL, LNnT, lactose, or endotoxin is added to the appropriate tubes and the cells are incubated for 48 hours at 37° C. in 5% CO2. Supernatants are collected at 24 and 48 hours post-infection.
(§2) Cytokines are measured in supernatants for each variable at 24 and 48 hours to assess the effects of HMOs on the early immune response to RSV. Cytokines are measured using custom Bio-Plex Human cytokine kits from Bio-Rad. Results for interferon-inducible protein 10 (IP-10, also known as CXCL 10) are shown in FIGS. 3 and 4 for 3′SL and 6′SL, and in FIGS. 5 and 6 for LNnT. IP-10 is a CXC chemokine that attracts, binds to and activates the CXCR3 receptor on natural killer cells and memory T cells. IP-10 is expressed by monocytes and a number of other cells, and is induced by interferon. A positive correlation exists between RSV clinical disease severity in children (as measured by: length of hospital stay, fever, and number of days supplemental O2 is required) and serum IP-10. Therefore, a decrease in IP-10 signals a decrease in severity of RSV disease experienced.

[5] = tested on: monocyte-derived cytokines; experiment: monocyte-derived cytokines in supernatants of HMO-treated peripheral blood mononuclear cells (Example 39); assay type: cell-based, human
Description: as §1, §2

[6] = tested on: respiratory syncytial virus (RSV); experiment: in vitro inhibition of viral infectivity, co-incubation of virus with HMO (Example 36); assay type: cell-based; details: virus dose about 500-1,000 units/mL; HMOs added at 1 mg/mL or 10 mg/mL
Description: In this Example, the effect of purified human milk oligosaccharides (HMO) on in vitro inhibition of viral infectivity is analyzed.
Samples are prepared by co-incubation of a uniform virus dose of from about 500 units/mL to about 1,000 units/mL of one of three respiratory viruses: (1) respiratory syncytial virus (RSV); (2) human parainfluenza virus (HPIV3); or (3) H1N1 influenza virus with one of the following HMOs: (1) 3′-sialyllactose (3′SL); (2) 6′-sialyllactose (6′SL); (3) 3′-fucosyllactose (3′FL); (4) 2′-fucosyllactose (2′FL); (5) lacto-N-neotetraose (LNnT); or (6) sialic acid (SA). The HMOs are added at concentrations of either 1 mg/mL or 10 mg/mL.

[7] = tested on: interleukin 10 (IL-10); experiment: IL-10 in supernatants of HMO-pretreated peripheral blood mononuclear cells with or without RSV (Example 39); assay type: cell-based, human; details: in the presence or absence of RSV
Description: as §1, with “After approximately one hour, fresh medium alone, or fresh medium containing the appropriate concentration of 3′SL, 6′SL, LNnT, lactose, or endotoxin is added to the appropriate tubes and the cells are incubated for 48 hours at 37° C. in 5% CO2. Supernatants are collected at 24 and 48 hours post-infection.” left out
Cytokines are measured in supernatants for each variable at 24 and 48 hours to assess the effects of HMOs on the early immune response to RSV. Cytokines are measured using custom Bio-Plex Human cytokine kits from Bio-Rad. […] A positive correlation exists between RSV clinical disease severity in children (as measured by: length of hospital stay, fever, and number of days supplemental O2 is required) and serum IP-10. […]

[8] = tested on: Interleukin 8 (IL-8); experiment: IL-8 in supernatants of PBMCs treated with 3′SL and/or 6′SL with or without RSV (Example 40); assay type: cell-based, human; details: in the presence of RSV (MOI 0.1); individual 0.1-0.5 mg/mL, combinations 0.2-1.0 mg/mL total; FIG. 11
Description: In this example, the combination of 3′SL and 6′SL to reduce the inflammatory cytokine IL-8 in vitro is analyzed.
Specifically, 3′SL and 6′SL are added individually at concentrations of 0.1 mg/mL, 0.2 mg/mL, or 0.5 mg/mL or in combination (Combo 1=1 part 3′SL to 1 part 6′SL; Combo 2=1 part 3′SL to 2 parts 6′SL), at total concentrations of 0.2 mg/mL, 0.4 mg/mL, or 1.0 mg/mL to fresh peripheral blood mononuclear cells (PBMCs) and incubated at 37° C. in 5% CO2 to pretreat the cells for approximately 24 hours. Lactose is included as a carbohydrate control. Matched endotoxin unit concentration controls are included to allow differentiation of ingredient effects from inherent low levels of endotoxin. After approximately 24 hours, some variables are then incubated with RSV at a multiplicity of infection (MOI) of 0.1 for approximately 1 hour at 37° C. in 5% in CO2. Uninfected control variables are incubated with medium for approximately 1 hour at 37° C. in 5% CO2. […] Cytokines are measured in supernatants for each variable at 24 and 48 hours to assess the effects of the 3′SL and/or the 6′SL on the early immune response to RSV. Cytokines are measured using custom Bio-Plex Human cytokine kits from Bio-Rad. […]

[9] = in the presence or absence of the virus
[10] = virus dose about 500-1,000 units/mL, HMOs added at 1 mg/mL or 10 mg/mL

| Structure (SMILES) | IC50 ([1]; Influenza A virus, H1N1, virus dose about 500-1,000 units/mL, HMOs added at 1 mg/mL or 10 mg/mL, read-out: IC50 (mg HMO/mL) H1N1 Influenza) | inhibition at 10000 µg/mL ([2]; read-out: inhibition of virus infectivity) | IC50 ([3]; Human respirovirus 3, read-out: IC50 (mg HMO/mL) HPIV3) | IP-10 in virus-infected variables ([4]; RSV MOI 0.1) | IP-10 level reached compared with uninfected controls [4] | effectiveness at dampening virus-induced inflammation (decrease in IP-10) compared with 3′SL [4] | reducing inflammation caused by RSV [4] | immunomodulation: induces and/or modifies production of monocyte-derived cytokines [5, 9] | IC50 (mg HMO/mL) H1N1 Influenza [1, 10] | IC50 (mg HMO/mL) RSV [6] | IL-10 concentration [7] | IL-8 concentration with increasing HMO concentration [8] | RSV-induced IP-10, Donor B ([4]; RSV MOI 0.1, 0.1-0.5 mg/mL, Donor B) | RSV-induced IP-10, Donor E ([4]; RSV MOI 0.1, 0.1-0.5 mg/mL, Donor E) | anti-viral activity against H1N1 influenza virus ([1]; HMO at 1 mg/mL) | IC50 (mg HMO/mL) HPIV3 [3] | immunomodulation: induces and/or modifies production of monocyte-derived cytokines ([5]; in the absence of the virus) | inhibition of virus infectivity [2] |
| --- | --- | --- | --- | --- | --- | --- | --- | --- | --- | --- | --- | --- | --- | --- | --- | --- | --- | --- |
| CC(=O)N[C@H]1[C@H]([C@H](O)[C@H](O)CO)OC(O)(C(=O)O)C[C@@H]1O (some centres unmarked) [SA, sialic acid] | ~5000 µg/mL (≈ 16.2 mM) | > 90% | ~2000 µg/mL (≈ 6.47 mM) | – | – | – | – | – | – | – | – | – | – | – | – | – | – | – |
| CC(=O)N[C@H]1[C@H](O[C@H]2[C@@H](O)[C@@H](CO)O[C@@H](O[C@H]3[C@H](O)[C@@H](O)C(O)O[C@@H]3CO)[C@@H]2O)O[C@H](CO)[C@@H](O[C@@H]2O[C@H](CO)[C@H](O)[C@H](O)[C@H]2O)[C@@H]1O (mixture of isomers) [LNnT, lacto-N-neotetraose] | – | – | – | clearly downregulates IP-10 | reduce IP-10 to levels found in uninfected controls | more effective than 3′SL | effective in reducing inflammation caused by RSV | immunomodulatory | >10 mg HMO/mL | >10 mg HMO/mL | increases IL-10 concentration in a dose-dependent manner | – | – | – | – | – | – | – |
| CC(=O)N[C@H]1[C@H]([C@H](O)[C@H](O)CO)O[C@@](O[C@H]2[C@@H](O)[C@@H](CO)O[C@@H](O[C@H]3[C@H](O)[C@@H](O)C(O)O[C@@H]3CO)[C@@H]2O)(C(=O)O)C[C@@H]1O (some centres unmarked) [3′SL, 3′-sialyllactose] | – | – | – | dampen RSV-induced IP-10 | – | – | effective in reducing inflammation caused by RSV | immunomodulatory | ~5 mg HMO/mL | >10 mg HMO/mL | – | increase IL-8 | not effective | downregulates RSV-induced IP-10 | inhibited | >10 mg HMO/mL | – | – |
| CC(=O)N[C@H]1[C@H]([C@H](O)[C@H](O)CO)O[C@@](OC[C@H]2O[C@@H](O[C@H]3[C@H](O)[C@@H](O)[C@H](O)O[C@@H]3CO)[C@H](O)[C@@H](O)[C@H]2O)(C(=O)O)C[C@@H]1O [6′SL, 6′-sialyllactose] | – | – | – | clearly downregulates IP-10 | reduce IP-10 to levels found in uninfected controls | more effective at downregulation of IP-10; also recorded: more effective than 3′SL | effective in reducing inflammation caused by RSV | – | ~10 mg HMO/mL | >10 mg HMO/mL | increases interleukin 10 (IL-10) concentration in a dose-dependent manner | increase IL-8 | – | – | – | >10 mg HMO/mL | immunomodulatory | approximately 60% |
